This note sets out measurements from the OligoGym collection.

This series concerns the target APP. Put plainly: mouse, dose not given. The note with it: ASO.

HELM strings list units from the 5' end as sugar, base in round brackets, then linkage (d deoxyribose, r ribose, m 2'-O-methyl, p phosphodiester). Strings are as the collection lists them; they lack the last nucleoside at the 3' end of the tested compound. [moe] = 2'-O-(2-methoxyethyl) (MOE); [sp] = phosphorothioate linkage; [m5C] = 5-methylcytosine

“RNA1{[moe]([m5C])[sp].[moe](A)p.[moe](T)p.[moe](G)p.[moe](G)[sp].d([m5C])[sp].d(T)[sp].d(T)[sp].d([m5C])[sp].d([m5C])[sp].d(A)[sp].d([m5C])[sp].d(T)[sp].d([m5C])[sp].d(T)[sp].[moe](G)p.[moe](G)p.[moe]([m5C])[sp].[moe]([m5C])}$$$$ (last 3' nucleoside missing)”: the 3 h FOB score was found to be 1 score 0-7. “RNA1{[moe]([m5C])[sp].[moe](A)p.[moe](T)p.[moe](G)p.[moe]([m5C])[sp].d(G)[sp].d([m5C])[sp].d(T)[sp].d([m5C])[sp].d(A)[sp].d(T)[sp].d(A)[sp].d(A)[sp].d(A)[sp].d(T)[sp].[moe]([m5C])p.[moe](A)p.[moe]([m5C])[sp].[moe](A)}$$$$ (last 3' nucleoside missing)” registered a 3 h FOB score of 3.5 score 0-7. The figure for “RNA1{[moe]([m5C])[sp].[moe](A)p.[moe](T)p.[moe](T)p.[moe]([m5C])[sp].d(T)[sp].d([m5C])[sp].d(T)[sp].d(T)[sp].d(A)[sp].d(T)[sp].d(A)[sp].d(T)[sp].d(T)[sp].d([m5C])[sp].[moe]([m5C])p.[moe](T)p.[moe](T)[sp].[moe](A)}$$$$ (last 3' nucleoside missing)” is 0 score 0-7.

“RNA1{[moe]([m5C])[sp].[moe](A)p.[moe](T)p.[moe]([m5C])p.[moe](A)[sp].d([m5C])[sp].d(T)[sp].d(T)[sp].d(A)[sp].d([m5C])[sp].d(A)[sp].d(A)[sp].d(A)[sp].d([m5C])[sp].d(T)[sp].[moe]([m5C])p.[moe](A)p.[moe]([m5C])[sp].[moe]([m5C])}$$$$ (last 3' nucleoside missing)” gave a 3 h FOB score of 0.5 score 0-7. On to “RNA1{[moe]([m5C])[sp].[moe](A)p.[moe]([m5C])p.[moe]([m5C])p.[moe](A)[sp].d(T)[sp].d([m5C])[sp].d(T)[sp].d(A)[sp].d(T)[sp].d(A)[sp].d(A)[sp].d(T)[sp].d(A)[sp].d([m5C])[sp].[moe]([m5C])p.[moe](A)p.[moe](T)[sp].[moe]([m5C])}$$$$ (last 3' nucleoside missing)”, for which the 3 h FOB score came out at 0 score 0-7. The figure for “RNA1{[moe]([m5C])[sp].[moe](A)p.[moe]([m5C])p.[moe]([m5C])p.[moe](T)[sp].d([m5C])[sp].d(A)[sp].d(G)[sp].d([m5C])[sp].d([m5C])[sp].d(A)[sp].d([m5C])[sp].d(T)[sp].d(T)[sp].d([m5C])[sp].[moe](T)p.[moe](T)p.[moe]([m5C])[sp].[moe]([m5C])}$$$$ (last 3' nucleoside missing)” is 0.5 score 0-7; for “RNA1{[moe]([m5C])[sp].[moe](G)p.[moe](A)p.[moe](G)p.[moe](A)[sp].d(T)[sp].d(A)[sp].d([m5C])[sp].d(T)[sp].d(T)[sp].d(G)[sp].d(T)[sp].d([m5C])[sp].d(A)[sp].d(A)[sp].[moe]([m5C])p.[moe](G)p.[moe](G)[sp].[moe]([m5C])}$$$$ (last 3' nucleoside missing)” it is 2.33 score 0-7. As to “RNA1{[moe]([m5C])[sp].[moe](G)p.[moe](G)p.[moe](A)p.[moe]([m5C])[sp].d(T)[sp].d(T)[sp].d(T)[sp].d(T)[sp].d(T)[sp].d(T)[sp].d([m5C])[sp].d(T)[sp].d(T)[sp].d([m5C])[sp].[moe](T)p.[moe](T)p.[moe](G)[sp].[moe]([m5C])}$$$$ (last 3' nucleoside missing)”, the 3 h FOB score was 0 score 0-7. “RNA1{[moe]([m5C])[sp].[moe](G)p.[moe](G)p.[moe]([m5C])p.[moe](A)[sp].d(G)[sp].d(T)[sp].d(T)[sp].d(T)[sp].d(A)[sp].d(A)[sp].d(A)[sp].d(A)[sp].d(T)[sp].d(T)[sp].[moe]([m5C])p.[moe](T)p.[moe]([m5C])[sp].[moe](T)}$$$$ (last 3' nucleoside missing)”: the 3 h FOB score was determined as 0 score 0-7.

For the substance “RNA1{[moe]([m5C])[sp].[moe](G)p.[moe](T)p.[moe](G)p.[moe](T)[sp].d(G)[sp].d(T)[sp].d(A)[sp].d(T)[sp].d([m5C])[sp].d([m5C])[sp].d(T)[sp].d([m5C])[sp].d(T)[sp].d(T)[sp].[moe](A)p.[moe](A)p.[moe](T)[sp].[moe](T)}$$$$ (last 3' nucleoside missing)”, the 3 h FOB score was 1 score 0-7. For the substance “RNA1{[moe]([m5C])[sp].[moe](T)[sp].[moe](T)p.[moe]([m5C])p.[moe]([m5C])[sp].d([m5C])[sp].d(A)[sp].d(T)[sp].d(T)[sp].d([m5C])[sp].d(T)[sp].d([m5C])[sp].d(T)[sp].d([m5C])[sp].d(A)[sp].[moe](T)p.[moe](G)p.[moe](A)[sp].[moe]([m5C])}$$$$ (last 3' nucleoside missing)”, the 3 h FOB score was 1 score 0-7. The substance “RNA1{[moe]([m5C])[sp].[moe](T)p.[moe](A)p.[moe]([m5C])p.[moe]([m5C])[sp].d([m5C])[sp].d([m5C])[sp].d(T)[sp].d([m5C])[sp].d(G)[sp].d(G)[sp].d(A)[sp].d(A)[sp].d([m5C])[sp].d(T)[sp].[moe](T)p.[moe](G)p.[moe](T)[sp].[moe]([m5C])}$$$$ (last 3' nucleoside missing)” displayed a 3 h FOB score of 0.75 score 0-7. Next, “RNA1{[moe]([m5C])[sp].[moe](T)p.[moe](G)p.[moe](G)p.[moe](G)[sp].d(T)[sp].d(A)[sp].d([m5C])[sp].d(A)[sp].d(T)[sp].d(A)[sp].d(A)[sp].d(T)[sp].d(A)[sp].d([m5C])[sp].[moe](T)p.[moe](A)p.[moe](G)[sp].[moe](G)}$$$$ (last 3' nucleoside missing)”: 0 score 0-7; “RNA1{[moe]([m5C])[sp].[moe](T)p.[moe](T)p.[moe](A)p.[moe]([m5C])[sp].d(A)[sp].d(A)[sp].d(A)[sp].d([m5C])[sp].d(T)[sp].d([m5C])[sp].d(A)[sp].d([m5C])[sp].d([m5C])[sp].d(A)[sp].[moe](A)p.[moe]([m5C])p.[moe](T)[sp].[moe](A)}$$$$ (last 3' nucleoside missing)”: 0 score 0-7. The substance “RNA1{[moe]([m5C])[sp].[moe](T)p.[moe](T)p.[moe](A)p.[moe]([m5C])[sp].d(A)[sp].d(T)[sp].d([m5C])[sp].d(A)[sp].d(T)[sp].d(T)[sp].d(T)[sp].d(T)[sp].d([m5C])[sp].d(T)[sp].[moe](T)p.[moe](G)p.[moe]([m5C])[sp].[moe](A)}$$$$ (last 3' nucleoside missing)” gave a 3 h FOB score of 1 score 0-7. The figure for “RNA1{[moe]([m5C])[sp].[moe](T)p.[moe](T)p.[moe](T)p.[moe](T)[sp].d(G)[sp].d(T)[sp].d(A)[sp].d(T)[sp].d([m5C])[sp].d(A)[sp].d(T)[sp].d(A)[sp].d(A)[sp].d(A)[sp].[moe](T)p.[moe](G)p.[moe](A)[sp].[moe](A)}$$$$ (last 3' nucleoside missing)” is 0.5 score 0-7. Next, “RNA1{[moe]([m5C])[sp].[moe](T)p.[moe](T)p.[moe](T)p.[moe]([m5C])[sp].d(T)[sp].d(A)[sp].d(T)[sp].d(T)[sp].d(T)[sp].d(A)[sp].d([m5C])[sp].d(T)[sp].d([m5C])[sp].d(A)[sp].[moe]([m5C])p.[moe](A)p.[moe](G)[sp].[moe]([m5C])}$$$$ (last 3' nucleoside missing)”: 0 score 0-7; “RNA1{[moe]([m5C])[sp].[moe](T)p.[moe](T)p.[moe]([m5C])p.[moe](T)[sp].d(G)[sp].d([m5C])[sp].d(A)[sp].d(A)[sp].d(A)[sp].d(G)[sp].d(A)[sp].d(A)[sp].d([m5C])[sp].d(A)[sp].[moe]([m5C])p.[moe]([m5C])p.[moe](A)[sp].[moe](A)}$$$$ (last 3' nucleoside missing)”: 0.5 score 0-7.

Take “RNA1{[moe]([m5C])[sp].[moe](T)p.[moe](T)p.[moe]([m5C])p.[moe](T)[sp].d(T)[sp].d(A)[sp].d(T)[sp].d([m5C])[sp].d(A)[sp].d(G)[sp].d([m5C])[sp].d(T)[sp].d(T)[sp].d(T)[sp].[moe](A)p.[moe](G)p.[moe](G)[sp].[moe]([m5C])}$$$$ (last 3' nucleoside missing)”: the 3 h FOB score was 1 score 0-7. The figure for “RNA1{[moe]([m5C])[sp].[moe](T)p.[moe](T)p.[moe]([m5C])p.[moe]([m5C])[sp].d([m5C])[sp].d(A)[sp].d(T)[sp].d(T)[sp].d([m5C])[sp].d(T)[sp].d([m5C])[sp].d(T)[sp].d([m5C])[sp].d(A)[sp].[moe](T)p.[moe](G)p.[moe](A)[sp].[moe]([m5C])}$$$$ (last 3' nucleoside missing)” is 0.25 score 0-7. Next, “RNA1{[moe]([m5C])[sp].[moe](T)p.[moe](T)p.[moe]([m5C])p.[moe]([m5C])p.[moe]([m5C])p.d(A)[sp].d(T)[sp].d(T)[sp].d([m5C])[sp].d(T)[sp].d([m5C])[sp].d(T)[sp].d([m5C])[sp].d(A)[sp].d(T)[sp].[moe](G)p.[moe](A)[sp].[moe]([m5C])}$$$$ (last 3' nucleoside missing)”: 0 score 0-7.

The substance “RNA1{[moe]([m5C])[sp].[moe](T)p.[moe]([m5C])p.[moe](T)p.[moe](T)[sp].d(G)[sp].d(T)[sp].d(T)[sp].d(A)[sp].d(A)[sp].d(A)[sp].d(T)[sp].d([m5C])[sp].d(A)[sp].d(T)[sp].[moe](G)p.[moe](G)p.[moe]([m5C])[sp].[moe](A)}$$$$ (last 3' nucleoside missing)” had a 3 h FOB score of 0 score 0-7.

For “RNA1{[moe]([m5C])[sp].[moe](T)p.[moe]([m5C])p.[moe](T)p.[moe]([m5C])[sp].d(A)[sp].d(T)[sp].d(A)[sp].d(G)[sp].d(T)[sp].d([m5C])[sp].d(T)[sp].d(T)[sp].d(A)[sp].d(A)[sp].[moe](T)p.[moe](T)p.[moe]([m5C])[sp].[moe]([m5C])}$$$$ (last 3' nucleoside missing)”, the 3 h FOB score turned out to be 0.25 score 0-7. For “RNA1{[moe]([m5C])[sp].[moe](T)p.[moe]([m5C])p.[moe](T)p.[moe]([m5C])p.[moe](A)[sp].d(T)[sp].d(A)[sp].d(G)[sp].d(T)[sp].d([m5C])[sp].d(T)[sp].d(T)[sp].d(A)[sp].d(A)[sp].d(T)[sp].[moe](T)p.[moe]([m5C])[sp].[moe]([m5C])}$$$$ (last 3' nucleoside missing)”, the 3 h FOB score stood at 0.75 score 0-7.
